“Also recorded” adds a separate entry of the source.
How the values were obtained:
blood pressure in rats = test: Blood pressure measurement in rats by telemetry; type: in vivo, rat; details: conscious rats, IP injection, FIG. 5
Method: Cardiac parameters were measured by small transmitting devices, (Data Sciences PhysioTel Telemetry devices), implanted in rats. The implanted transmitting devices were used to measure blood pressure in freely moving conscious animals. There are no external connections or tethering devices that can inhibit animal movement and induce unnecessary stress, which can affect the outcome of a study.
This procedure was performed under modified aseptic conditions. Rats were anesthetized with Isoflurane gas that ranged in concentration from 1.5-2.0%. A cardiac telemetry device was implanted into the peritoneal cavity with a pressure sensing catheter situated no more than 2 cm inside the descending aorta. This was accomplished as follows: The rat was shaved and the incision site was prepared with an iodine solution. The rat was then placed on a heating pad to maintain a constant body temp of 38+/−0.5° C., and covered with a sterile drape. A 6 cm midline abdominal incision was made to provide access to the implantation area. […] The rats were monitored for 7 days to ensure proper recovery.
On the test day, injections with either vehicle or with test compound were administered via IP injection in volumes of ˜250 μl. Animals were monitored with a resolution of approximately one measurement/min for 60 minutes before injection of vehicle or compound and for about 120 minutes after injection.

[1] = test system: isolated rat aortic rings; test: Angiotensin II induced vasoconstriction in isolated rat aortic rings; details: pretreatment 15 min; Angiotensin II 1 uM; same doses also tested against norepinephrine 1 uM; FIG. 6
Method: Sprague-Dawley rats (250-300 g) were euthanized via CO2 chamber. […] The excess adventitial tissue was carefully removed and the endothelium was sloughed off by rinsing with buffer via syringe. The vessel was then cut into 2-3 mm rings and mounted on wire stirrups connected to force transducers (World Precision Instruments, Myobath 4 channel system, FORT-10) to record changes in isometric force. The aortic rings were then placed in 15 mL organ baths filled with buffer at 37° C. with continuous aeration (95% O2 and 5% CO2)
The rings were left to equilibrate in buffer for 30 minutes. A resting tension of 4 g was applied and the rings were allowed to equilibrate for 1 hour. During the equilibration period, the buffer was changed every 30 minutes. After equilibration was complete, the aortic rings were tested for viability and maximal contraction response by addition of 50 mM KCl.
Aortic rings were contracted with AngiotensinII (1 uM) Sigma, St Louis, Mo. and the isometric force recorded. […] The aortic rings were then treated with the agonist, AngiotensinII (1 uM), and the change in isometric force was recorded. […]
Data for each group (Compound S75 concentration) was from n=4 aortic rings. Change in aortic tension after AngiotensinII treatment was expressed as a percentage to 50 mM KCL in order to normalize tension for each aortic ring.

isolated rat hearts = test: Ischemia-reperfusion assay in isolated adult rat hearts (Langendorff apparatus)
Method: Male Sprague-Dawley rats (300-350 g body weight) were anesthetized with Inactin (100 mg/kg IP) 20 minutes prior to surgery. The chest wall was opened and the heart was rapidly excised and immediately placed into ice-cold Krebs-Henseleit (KH) buffer (118 mM NaCl, 4.7 mM KCl, 1.2 mM MgSO4, 1.2 mM KH2PO4, […], 25 mM NaHCO3, 11 mM glucose, 1 mM pyruvate, and 0.005 mM EDTA) to produce cardiac arrest. The aorta was then cannulated and the heart retrogradely perfused with KH buffer maintained at 37° C. in a reservoir bubbled with 95% O2/5% CO2 (pH7.4) on the Langendorff apparatus at a constant pressure of 70 mmHg. Myocardial temperature was maintained at 37° C. by partially submerging the heart into a water-jacketed chamber filled with KH buffer. A water filled latex balloon attached to a metal cannula and inserted into the left ventricle via the mitral valve and connected to a pressure transducer (Powerlab, ADInstruments, Inc) was used for measurement of left ventricular pressure. The balloon was initially inflated to an end-diastolic pressure of 10 mmHg. After allowing 20 minutes for equilibration, rat hearts were subjected to 10 minutes of KH buffer containing drug or vehicle followed by 30 minutes of ischemia followed by 30 minutes of reperfusion. The difference between peak-systolic and end diastolic pressures, or left ventricular developed pressure (LVDP) was calculated as an index of contractile function and measured just prior to ischemia and at 10, and 30 minutes of reperfusion. Percent recovery of LV function [(LVDP post reperfusion/LVDP pre-ischemia)[…]] was averaged across 5 vehicle and 4 drug treated hearts and one-way anova with Newman-Keuls Multiple Comparison Test was used to determine statistical significance.
Epicardial electrogram recordings were also taken from the isolated rat hearts used in FIGS. 2 and 3. Briefly, silver wire electrodes were placed on the right atrium and the apex of the left ventricle, allowing an epicardial electrogram to be recorded. Premature ventricular contraction (PVC), ventricular tachycardia and ventricular fibrillation were common arrhythmias observed during reperfusion following 30 minutes of global ischemia. Hearts were considered positive for reperfusion arrhythmias if ventricular arrhythmias were sustained for greater than 30 seconds during the first 5 minutes of reperfusion.

Mas receptor [2] = target: T1, Mas receptor (Homo sapiens, UniProt P04201); test: Mas receptor IP3 assay (inverse agonist assay); type: cell-based; set-up: expressed in transfected cells; details: for IC50: n = 2
T1 sequence (P04201 1-325): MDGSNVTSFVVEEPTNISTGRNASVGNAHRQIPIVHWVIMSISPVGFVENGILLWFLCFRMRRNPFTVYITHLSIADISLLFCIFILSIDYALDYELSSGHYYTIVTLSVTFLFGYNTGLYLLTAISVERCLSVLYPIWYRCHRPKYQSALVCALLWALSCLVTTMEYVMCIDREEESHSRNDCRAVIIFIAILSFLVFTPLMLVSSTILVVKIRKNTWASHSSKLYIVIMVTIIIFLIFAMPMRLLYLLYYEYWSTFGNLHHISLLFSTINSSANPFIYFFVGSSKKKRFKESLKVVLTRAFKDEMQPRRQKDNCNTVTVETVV
Method: The Mas receptor IP3 assay was performed using a mammalian cell line (HEK293) which was transfected with a plasmid containing the human Mas receptor and selected for stable expression of the receptor. […] To achieve this, Mas receptor expression levels were increased by transiently transfecting the same Mas receptor stable cell line with additional human Mas receptor plasmid DNA following standard procedures. These cells were used in the Mas receptor IP3 assay approximately 24 hours post-transfection.
Cells were split into 96-well plates (50,000 cells/well) and allowed to attach for a period of 6 hours. The growth medium was then replaced with medium supplemented with 4 μCi/mL [3H]myo-inositol (100 μl; Perkin Elmer Life Sciences) and the cells were allowed to incubate for approximately 20 hours. Test compounds were serially diluted in inositol-free media containing 10 mM LiCl. The media in the plates was removed by aspiration, replaced with these test compound solutions and incubated at 37° C. for 1 hour.
Following this incubation, the media was removed by aspiration and replaced with buffer containing 0.1M formic acid. The plates were then frozen overnight at −80° C. to achieve complete cell lysis.
The following day, the assay plates were thawed at room temperature. The thawed contents were then transferred to 96-well filter plates (Nillipore, Multiscreen) pre-loaded with resin (Biorad, AG1-X8 100-200 mesh, formate form). The plate was filtered using a vacuum manifold and the resin was washed multiple times with water. An elution buffer was then applied (200 μl, 0.2M Ammonium formate/0.1M formic acid) and the resulting eluent was collected, under vacuum, in a 96-well collection plate. Aliquots of the eluent (80 μl) were transferred to filter plates (Whatman, Unifilter GF/C) and dried in a 45° C. oven overnight. Dried plates were counted on a scintillation counter following the addition of an appropriate scintillant (Perkin Elmer Life Sciences, Optiphase Supermix or Hi-Safe 3).

Mas receptor [3] = target: T1, Mas receptor; details: Dong et al., Cell 2001; cited from earlier work
Mas receptor [4] = details: Santos et al., PNAS 2003; cited from earlier work

Compound: C=CCN1CCC2(CC1)CN(C(=O)c1cccc(F)c1F)c1ccc(F)cc12 [Compound S75, 1′-(allyl)-1,2-dihydro-5-fluoro-1-(2,3-difluoro-benzoyl)-spiro[3H-indole-3,4′-piperidine]]
- change in blood pressure after treatment (blood pressure in rats): does not raise blood pressure; also recorded: did not result in a significant change in blood pressure
- inhibition of angiotensin II induced vasoconstriction [1]: potent and selective inhibition
- left ventricle function after reperfusion compared to vehicle treatment (isolated rat hearts; 30 μM, 30 min ischemia, 30 min reperfusion, FIG. 2): significant increase in left ventricle function
- level of left ventricle function after reperfusion versus level before ischemia (isolated rat hearts; 30 μM, FIG. 2): comparable to the level before ischemia
- ischemic contracture: end diastolic pressure (EDP) compared to vehicle treatment (isolated rat hearts; 30 μM, FIG. 3): significant decrease in end diastolic pressure
- early reperfusion arrhythmias (isolated rat hearts; ventricular arrhythmias sustained > 30 seconds during first 5 minutes of reperfusion, FIG. 4): none of the four hearts
- mode of action at the Mas receptor (Mas receptor [2]; FIG. 1): inverse agonist

Compound: CC(C)c1ccc2c(c1)C1(CCN(CCC(F)(F)F)CC1)CN2C(=O)c1c(F)cccc1F [Compound 1, 1′-(3,3,3-trifluoro-propyl)-1,2-dihydro-5-isopropyl-1-(2,6-difluoro-benzoyl)-spiro[3H-indole-3,4′-piperidine]]
- IC50 (Mas receptor [2]): 28.6 nM

Compound: a peptide called NPFF, reported to bind the Mas receptor weakly and NPFF1/NPFF2 with high affinity
- EC50 (Mas receptor [3]): ~400 nM

Compound: CCCN1CCC2(CC1)CN(C(=O)c1c(F)cccc1F)c1ccc(C(C)(C)C)cc12 [Compound 4, 1′-(propyl)-1,2-dihydro-5-tert-butyl-1-(2,6-difluoro-benzoyl)-spiro[3H-indole-3,4′-piperidine]]
- IC50 (Mas receptor [2]): 35.1 nM

Compound: DRVYIHP [Ang (1-7), H-Asp-Arg-Val-Tyr-Ile-His-Pro-OH]
- Kd (Mas receptor [4]): 0.33 nM

Compound: angiotensin II: known vasoconstrictor peptide, control compound in the blood pressure study (DRVYIHPF; Angiotensin-2; UniProt P01019 25-32, looked up) [reference compound]
- change in blood pressure after treatment (blood pressure in rats): significant increase in blood pressure

Source: patent US20080200491A1, “1,2-Dihydro-Spiro[3H-Indole-3,4'-Piperidine] Compounds, as Modulators of the Mas Receptor Novel” (priority 2005, published 2008)
